From US20110046130A1, “TETRAHYDRONAPHTHYRIDINES AND AZA DERIVATIVES THEREOF AS HISTAMINE H3 RECEPTOR ANTAGONISTS” (Evotec AG, priority 2008, published 2011) come the findings set out here.

A value given as a limit tells only on which side of the number the result lay.

T1 sequence (Q9Y5N1 whole entry): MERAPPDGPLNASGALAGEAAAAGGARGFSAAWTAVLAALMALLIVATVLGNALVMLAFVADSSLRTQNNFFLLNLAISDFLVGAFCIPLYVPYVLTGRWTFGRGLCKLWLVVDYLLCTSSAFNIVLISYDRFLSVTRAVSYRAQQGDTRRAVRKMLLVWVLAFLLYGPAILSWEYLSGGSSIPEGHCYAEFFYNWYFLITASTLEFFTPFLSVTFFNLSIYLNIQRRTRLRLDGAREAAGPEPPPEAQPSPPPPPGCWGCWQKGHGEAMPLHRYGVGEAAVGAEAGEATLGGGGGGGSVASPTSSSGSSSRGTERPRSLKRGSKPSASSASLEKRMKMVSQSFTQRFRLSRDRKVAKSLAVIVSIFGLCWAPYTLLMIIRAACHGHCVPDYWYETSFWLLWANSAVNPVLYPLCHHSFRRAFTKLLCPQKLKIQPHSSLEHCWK

This test addresses T1, human H3 receptors (Homo sapiens, UniProt Q9Y5N1).
T1 construct: host or cells: CHO-K1
The test can be described thus: cAMP quantification protocol for human H3 receptor testing. It is filed as cell-based. Conditions: inhibition of agonist-induced (100 nM histamine, 10 μM forskolin) decrease of intracellular cAMP; CHO-K1 cell line expressing human H3 receptors; read-out: Potency range (IC50 values). On the procedure: CHO-K1 cell line expressing human H3 receptors were purchased from Euroscreen (Gosselies, Belgium, Cat. no.: ES-392-C)
Human H3 receptor-expressing cell-lines were grown in Ham's F12 [Sigma, Cat. no. N6658], supplemented with 10% FBS [Sigma, Cat. no. F9665], 400 μg/ml G418 [Sigma, Cat. no. N1876] and 250 μg/ml Zeocin [Invitrogen, Cat. no. 46-0509]) according to the protocol provided by Euroscreen.
cAMP Quantification Protocol for Human H3 Receptor Testing
The assay measures the ability of test compounds to inhibit Histamine receptor agonist-induced decrease of intracellular free cAMP (receptor is Gi coupled).
Specifically, a cAMP quantification assay system from DiscoveRx (cAMP XS+; Cat. no. 90-0075) was used.
For the cAMP assay, confluent cells were detached from the culture vessels with 1× trypsin-EDTA solution (Sigma), and seeded into 384-well Costar plates (white, clear bottom, Cat. no. 3707) at a density of 10,000 cells per well. Cells were seeded in a volume of 50 μl in medium without antibiotics and incubated overnight in a humidified atmosphere with 5% CO2 at 37° C. The cAMP assay was performed according to the protocol provided by DiscoveRx.
The cell culture medium was removed and the cells washed once with PBS (50 μl per well). The plates were emptied by inversion and 7.5 μl/well of compound in PBS (containing 1 mM IBMX and 0.03% BSA) were added and incubated for 30 min at 37° C.
Subsequent 7.5 μl/well specific agonist solution was added and the plates for another 30 min incubated at 37° C.
The following agonist solution is used:
100 nM histamine, 10 μM forskolin in PBS (containing 1 mM IBMX and 0.03% BSA)
After the incubation with the agonist, 5 μl/well cAMP XS antibody solution was added followed by 20 μl/well Gal/EII/Lysis(1:5:19)+ED (1:1). The plates were incubated for one hour at room temperature and afterwards 20 μl/well EA reagent was added. The luminescence was developed for approximately three hours at room temperature and the plates were read out using a ‘BMG Novostar’ plate reader.
Test compounds were assayed at 8 concentrations in triplicate. Serial 10-fold dilutions in 100% DMSO were made at a 100-times higher concentration than the final concentration and then diluted with a 2 step protocol in assay buffer to reach the required assay concentrations and 1% DMSO.
As to `O=C1CCCC2c3ccc(OC4CCN(C5CCCC5)CC4)nc3CCN12` (centres unmarked) [Example 26, 3-[(1-Cyclopentylpiperidin-4-yl)oxy]-5,6,9,10,11,11a-hexahydro-8H-pyrido[2,1-f][1,6]naphthyridin-8-one], the IC50 is less than 100 nM.
Regarding `N#Cc1cc2c(nc1OC1CCN(C3CCC3)CC1)CCN1C(=O)CCCC21` (centres unmarked) [Example 29, 3-[(1-Cyclobutylpiperidin-4-yl)oxy]-8-oxo-5,8,9,10,11,11a-hexahydro-6H-pyrido[2,1-f][1,6]naphthyridine-2-carbonitrile], the IC50 was less than 100 nM.
In the case of `O=C1CCC2c3ccc(OC4CCN(C5CCCC5)CC4)nc3CCN12` (centres unmarked) [Example 28, 3-[(1-Cyclopentylpiperidin-4-yl)oxy]-5,9,10,10a-tetrahydropyrrolo[2,1-f][1,6]naphthyridin-8(6H)-one], the IC50 was less than 100 nM.
As for `CN1CCc2nc(OC3CCN(C4CCC4)CC3)c(C#N)cc2C1` [Example 12, 2-[(1-Cyclobutylpiperidin-4-yl)oxy]-6-methyl-5,6,7,8-tetrahydro-1,6-naphthyridine-3-carbonitrile], the figure is less than 100 nM; as for `CN1CCc2nc(O[C@@H]3CCN(C4CCCC4)C3)ccc2C1` [Example 3, 2-{[(3R)-1-Cyclopentylpyrrolidin-3-yl]oxy}-6-methyl-5,6,7,8-tetrahydro-1,6-naphthyridine], 100 to 500 nM.
As for `CC(C)N1CCC(N(C)c2ccc3c(n2)CCN2C(=O)CCCC32)CC1` (centres unmarked) [Example 32, 3-{methyl[1-(1-methylethyl)piperidin-4-yl]amino}-5,6,9,10,11,11a-hexahydro-8H-pyrido[2,1-f][1,6]naphthyridin-8-one], the IC50 was less than 100 nM.
As to `O=C1CCCC2c3ccc(O[C@H]4CCN(C5CCC5)C4)nc3CCN12` (mixture of isomers) [Example 17, 3-{[(3S)-1-cyclobutylpyrrolidin-3-yl]oxy}-5,6,9,10,11,11a-hexahydro-8H-pyrido[2,1-f][1,6]naphthyridin-8-one], the IC50 was 500 to 5000 nM.
As to `CN1CCc2nc(OC3CCN(C4CCC4)CC3)ncc2C1` [Example 13, 2-[(1-Cyclobutylpiperidin-4-yl)oxy]-6-methyl-5,6,7,8-tetrahydropyrido[4,3-d]pyrimidine], the IC50 is less than 100 nM.
Consider `O=C1CCCC2c3ccc(O[C@@H]4CCN(C5CCC5)C4)nc3CCN12` (mixture of isomers) [Example 16, 3-{[(3R)-1-cyclobutylpyrrolidin-3-yl]oxy}-5,6,9,10,11,11a-hexahydro-8H-pyrido[2,1-f][1,6]naphthyridin-8-one], for which the IC50 was in the range of 100 to 500 nM.
On to `CC(C)N1CCC(Oc2nc3c(cc2C#N)C2CCCC(=O)N2CC3)CC1` (centres unmarked) [Example 30, 3-{[1-(1-methylethyl)piperidin-4-yl]oxy}-8-oxo-5,8,9,10,11,11a-hexahydro-6H-pyrido[2,1-f][1,6]naphthyridine-2-carbonitrile], for which the half-inhibitory concentration (IC50) was less than 100 nM.
As for `CN1CCc2nc(OC3CCN(C4CC4)CC3)c(C#N)cc2C1` [Example 11, 2-[(1-Cyclopropylpiperidin-4-yl)oxy]-6-methyl-5,6,7,8-tetrahydro-1,6-naphthyridine-3-carbonitrile], the IC50 was less than 100 nM.
As for `CN1CCc2nc(O[C@H]3CCN(C4CCCC4)C3)ccc2C1` [Example 4, 2-{[(3S)-1-Cyclopentylpyrrolidin-3-yl]oxy}-6-methyl-5,6,7,8-tetrahydro-1,6-naphthyridine], the 50% inhibitory concentration (IC50) lay in the range of 100 to 500 nM.
As to `O=C1CCCC2c3ccc(OCCN4CCCCC4)nc3CCN12` (centres unmarked) [Example 24, 3-(2-piperidin-1-ylethoxy)-5,6,9,10,11,11a-hexahydro-8H-pyrido[2,1-f][1,6]naphthyridin-8-one], the IC50 was in the range of 500 to 5000 nM.
Regarding `O=C1CCCC2c3ccc(OCCCN4CCCC4)nc3CCN12` (centres unmarked) [Example 18, 3-(3-pyrrolidin-1-ylpropoxy)-5,6,9,10,11,11a-hexahydro-8H-pyrido[2,1-f][1,6]naphthyridin-8-one], the IC50 was less than 100 nM.
With `CC(C)N1CCC(Oc2ccc3c(n2)CCN2C(=O)CCCC32)CC1` (centres unmarked) [Example 15, 3-{[1-(1-methylethyl)piperidin-4-yl]oxy}-5,6,9,10,11,11a-hexahydro-8H-pyrido[2,1-f][1,6]naphthyridin-8-one], the IC50 was less than 100 nM.
For `CN1CCC(Oc2ccc3c(n2)CCN(C)C3)CC1` [Example 9, 6-Methyl-2-[(1-methylpiperidin-4-yl)oxy]-5,6,7,8-tetrahydro-1,6-naphthyridine], the IC50 was in the range of 500 to 5000 nM.
The figure for `O=C1CCCC2c3ccc(OCCCCN4CCCCC4)nc3CCN12` (centres unmarked) [Example 25, 3-(4-piperidin-1-ylbutoxy)-5,6,9,10,11,11a-hexahydro-8H-pyrido[2,1-f][1,6]naphthyridin-8-one] is 100 to 500 nM.
In the case of `CC(C)N1CCC(Oc2nc3c(cc2C#N)CN(C)CC3)CC1` [Example 10, 6-Methyl-2-{[1-(1-methylethyl)piperidin-4-yl]oxy}-5,6,7,8-tetrahydro-1,6-naphthyridine-3-carbonitrile], the IC50 is less than 100 nM.
With `CN1CCc2nc(OCCCN3CCCC3)ccc2C1` [Example 7, 6-Methyl-2-(3-pyrrolidin-1-ylpropoxy)-5,6,7,8-tetrahydro-1,6-naphthyridine], the IC50 was less than 100 nM.
On to `CN1CCc2nc(OC3CCN(C4CCCC4)CC3)ccc2C1` [Example 2, 2-[(1-Cyclopentylpiperidin-4-yl)oxy]-6-methyl-5,6,7,8-tetrahydro-1,6-naphthyridine], for which the IC50 was less than 100 nM.
For the compound `O=C1CCCC2c3ccc(OC4CCN(C5CCCCC5)CC4)nc3CCN12` (centres unmarked) [Example 22, 3-[(1-Cyclohexylpiperidin-4-yl)oxy]-5,6,9,10,11,11a-hexahydro-8H-pyrido[2,1-f][1,6]naphthyridin-8-one], the IC50 is less than 100 nM.
With `CN1CCc2nc(OC3CCN(C4CCC4)CC3)ccc2C1` [Example 1, 2-[(1-Cyclobutylpiperidin-4-yl)oxy]-6-methyl-5,6,7,8-tetrahydro-1,6-naphthyridine], the IC50 was less than 100 nM.
In the case of `O=C1CCCC2c3ccc(OC4CCN(CC5CC5)CC4)nc3CCN12` (centres unmarked) [Example 33, 3-{[1-(cyclopropylmethyl)piperidin-4-yl]oxy}-5,6,9,10,11,11a-hexahydro-8H-pyrido[2,1-f][1,6]naphthyridin-8-one], the IC50 was less than 100 nM.
The figure for `CN(c1nc2c(cc1C#N)C1CCCC(=O)N1CC2)C1CCN(C2CCC2)CC1` (centres unmarked) [Example 31, 3-[(1-cyclobutylpiperidin-4-yl)(methyl)amino]-8-oxo-5,8,9,10,11,11a-hexahydro-6H-pyrido[2,1-f][1,6]naphthyridine-2-carbonitrile] is less than 100 nM; for `O=C1CCCC2c3ccc(O[C@H]4CCN(C5CCCC5)C4)nc3CCN12` (stereo partly drawn) [Example 21, 3-{[(3S)-1-cyclopentylpyrrolidin-3-yl]oxy}-5,6,9,10,11,11a-hexahydro-8H-pyrido[2,1-f][1,6]naphthyridin-8-one] it is 100 to 500 nM; for `O=C1CCCC2c3ccc(OC4CCN(C5CCC5)CC4)nc3CCN12` (centres unmarked) [Example 14, 3-[(1-Cyclobutylpiperidin-4-yl)oxy]-5,6,9,10,11,11a-hexahydro-8H-pyrido[2,1-f][1,6]naphthyridin-8-one] it is less than 100 nM.
As for `CN1CCC(Oc2ccc3c(n2)CCN2C(=O)CCCC32)CC1` (centres unmarked) [Example 23, 3-[(1-Methylpiperidin-4-yl)oxy]-5,6,9,10,11,11a-hexahydro-8H-pyrido[2,1-f][1,6]naphthyridin-8-one], the figure is 500 to 5000 nM; as for `CN1CCc2nc(O[C@H]3CCN(C4CCC4)C3)ccc2C1` [Example 6, 2-{[(3S)-1-Cyclobutylpyrrolidin-3-yl]oxy}-6-methyl-5,6,7,8-tetrahydro-1,6-naphthyridine], 500 to 5000 nM; as for `O=C1CCC2c3ccc(OC4CCN(C5CCC5)CC4)nc3CCN12` (centres unmarked) [Example 27, 3-[(1-Cyclobutylpiperidin-4-yl)oxy]-5,9,10,10a-tetrahydropyrrolo[2,1-f][1,6]naphthyridin-8(6H)-one], less than 100 nM.
As to `CN1CCc2nc(O[C@@H]3CCN(C4CCC4)C3)ccc2C1` [Example 5, 2-{[(3R)-1-Cyclobutylpyrrolidin-3-yl]oxy}-6-methyl-5,6,7,8-tetrahydro-1,6-naphthyridine], the half-inhibitory concentration (IC50) was 100 to 500 nM.
For the compound `O=C1CCCC2c3ccc(OCCCN4CCCCC4)nc3CCN12` (centres unmarked) [Example 19, 3-(3-piperidin-1-ylpropoxy)-5,6,9,10,11,11a-hexahydro-8H-pyrido[2,1-f][1,6]naphthyridin-8-one], the IC50 was less than 100 nM.
As for `CC(C)N1CCC(Oc2ccc3c(n2)CCN(C)C3)CC1` [Example 8, 6-Methyl-2-{[1-(1-methylethyl)piperidin-4-yl]oxy}-5,6,7,8-tetrahydro-1,6-naphthyridine], the IC50 is less than 100 nM.

Broadly, the IC50 is the concentration that gives 50% inhibition.
